Reference: patent US20220081412A1, “QUINOLINYL-PYRAZINE-CARBOXAMIDE COMPOUNDS AND USES THEREOF” (The Regents of the University of Michigan, priority 2018, published 2022)

Test system: MIA PaCa-2 cells
Assay: Bru-seq analysis for nascent RNA synthesis (log2FC of genes, GSEA gene sets)
Type: cell-based, human
Details: 4 h
[1] = GO_NUCLEAR_NUCLEOSOME, upregulated
[2] = GO_ORGANIC_HYDROXY_COMPOUND_BIOSYNTHETIC_PROCESS, upregulated
[3] = GO_PROTEIN_DNA_COMPLEX, upregulated
[4] = GO_REGULATION_OF_ENDOPLASMIC_RETICULUM_STRESS_INDUCED_INTRINSIC_APOPTOTIC_SIGNALING_PATHWAY, upregulated
[5] = GO_REGULATION_OF_STEROID_BIOSYNTHETIC_PROCESS, upregulated
[6] = GO_REGULATION_OF_STEROID_METABOLIC_PROCESS, upregulated
[7] = GO_RIBOSOMAL_SUBUNIT, upregulated
[8] = GO_STEROID_BIOSYNTHETIC_PROCESS, upregulated
[9] = GO_STEROID_METABOLIC_PROCESS, upregulated
[10] = GO_STEROL_BIOSYNTHETIC_PROCESS, upregulated
[11] = GO_STEROL_METABOLIC_PROCESS, upregulated
[12] = GO_STRUCTURAL_CONSTITUENT_OF_RIBOSOME, upregulated
[13] = HAMAI_APOPTOSIS_VIA_TRAIL_UP, C2, downregulated
[14] = HUTTMANN_B_CLL_POOR_SURVIVAL_DN, C2, downregulated
[15] = KEGG_ACUTE_MYELOID_LEUKEMIA, upregulated
[16] = KEGG_ADIPOCYTOKINE_SIGNALING_PATHWAY, upregulated
[17] = KEGG_BIOSYNTHESIS_OF_UNSATURATED_FATTY_ACIDS, upregulated
[18] = KEGG_CARDIAC_MUSCLE_CONTRACTION, upregulated
[19] = KEGG_ENDOMETRIAL_CANCER, upregulated
[20] = KEGG_FC_EPSILON_RI_SIGNALING_PATHWAY, upregulated
[21] = KEGG_GLYCOLYSIS_GLUCONEOGENESIS, upregulated
[22] = KEGG_INSULIN_SIGNALING_PATHWAY, upregulated
[23] = KEGG_LONG_TERM_DEPRESSION, upregulated
[24] = KEGG_MTOR_SIGNALING_PATHWAY, upregulated
[25] = KEGG_NON_SMALL_CELL_LUNG_CANCER, upregulated
[26] = KEGG_OXIDATIVE_PHOSPHORYLATION, upregulated
[27] = KEGG_PARKINSONS_DISEASE, upregulated
[28] = KEGG_PORPHYRIN_AND_CHLOROPHYLL_METABOLISM, upregulated
[29] = KEGG_PPAR_SIGNALING_PATHWAY, upregulated
[30] = KEGG_PROGESTERONE_MEDIATED_OOCYTE_MATURATION, upregulated
[31] = KEGG_PROSTATE_CANCER, upregulated
[32] = KEGG_RENAL_CELL_CARCINOMA, upregulated
[33] = KEGG_SNARE_INTERACTIONS_IN_VESICULAR_TRANSPORT, upregulated
[34] = KEGG_SYSTEMIC_LUPUS_ERYTHEMATOSUS, upregulated
[35] = KEGG_VEGF_SIGNALING_PATHWAY, upregulated
[36] = KRCTCNNNNMANAGC_UNKNOWN, TFBT, upregulated
[37] = MILI_PSEUDOPODIA_HAPTOTAXIS_UP, C2, downregulated
[38] = NIKOLSKY_BREAST_CANCER_8Q12_Q22_AMPLICON, C2, downregulated

Cc1cc(NC(=O)c2cnc(N3CCNCC3)cn2)c2ncccc2c1 [J28, N-(6-methylquinolin-8-yl)-5-(piperazin-1-yl)pyrazine-2-carboxamide]
ES [1]: 0.745 | NES [1]: 2.088 | ES [2]: 0.503 | NES [2]: 1.959 | ES [3]: 0.554 | NES [3]: 2.251 | ES [4]: 0.678 | NES [4]: 2.024 | ES [5]: 0.710 | NES [5]: 2.097 | ES [6]: 0.615 | NES [6]: 2.031 | ES [7]: 0.469 | NES [7]: 1.976 | ES [8]: 0.605 | NES [8]: 2.176 | ES [9]: 0.523 | NES [9]: 2.100 | ES [10]: 0.757 | NES [10]: 2.428 | ES [11]: 0.651 | NES [11]: 2.434 | ES [12]: 0.452 | NES [12]: 1.990 | log2FC (GPR135, downregulated protein-coding gene): −1.08 | log2FC (GRIN2C, downregulated protein-coding gene): −0.95 | ES [13]: −0.508 | NES [13]: −2.848 | ES (HEB_Q6, TFBT, upregulated): 0.415 | NES (HEB_Q6, TFBT, upregulated): 1.688 | log2FC (HRH4, downregulated protein-coding gene): −0.86 | ES [14]: −0.605 | NES [14]: −2.158 | log2FC (IFT80, downregulated protein-coding gene): −1.12 | ES [15]: 0.524 | NES [15]: 1.872 | ES [16]: 0.429 | NES [16]: 1.493 | ES [17]: 0.555 | NES [17]: 1.531 | ES [18]: 0.424 | NES [18]: 1.386 | ES [19]: 0.437 | NES [19]: 1.492 | ES [20]: 0.442 | NES [20]: 1.464 | ES [21]: 0.478 | NES [21]: 1.563 | ES [22]: 0.349 | NES [22]: 1.403 | ES [23]: 0.461 | NES [23]: 1.491 | ES (KEGG_LYSOSOME, upregulated): 0.494 | NES (KEGG_LYSOSOME, upregulated): 1.958 | ES [24]: 0.447 | NES [24]: 1.469 | ES [25]: 0.477 | NES [25]: 1.610 | ES [26]: 0.387 | NES [26]: 1.544 | ES [27]: 0.358 | NES [27]: 1.404 | ES (KEGG_PEROXISOME, upregulated): 0.443 | NES (KEGG_PEROXISOME, upregulated): 1.643 | ES [28]: 0.496 | NES [28]: 1.448 | ES [29]: 0.485 | NES [29]: 1.573 | ES [30]: 0.434 | NES [30]: 1.602 | ES [31]: 0.402 | NES [31]: 1.527 | ES [32]: 0.393 | NES [32]: 1.392 | ES (KEGG_RIBOSOME, upregulated): 0.534 | NES (KEGG_RIBOSOME, upregulated): 2.148 | ES [33]: 0.503 | NES [33]: 1.647 | ES [34]: 0.661 | NES [34]: 2.271 | ES [35]: 0.501 | NES [35]: 1.705 | log2FC (KLF10, downregulated protein-coding gene): −0.88 | ES [36]: 0.784 | NES [36]: 2.441 | log2FC (LINC01337, downregulated noncoding gene): −1.06 | log2FC (LINC01764, downregulated noncoding gene): −1.03 | log2FC (LINC01930, downregulated noncoding gene): −1.08 | log2FC (MALAT1, downregulated noncoding gene): −1.19 | ES (MAZR_01, TFBT, upregulated): 0.380 | NES (MAZR_01, TFBT, upregulated): 1.598 | ES [37]: −0.420 | NES [37]: −2.372 | log2FC (MTND2P28, downregulated noncoding gene): −0.97 | ES (NFE2_01, TFBT, upregulated): 0.387 | NES (NFE2_01, TFBT, upregulated): 1.630 | ES (NFY_Q6_01, TFBT, upregulated): 0.370 | NES (NFY_Q6_01, TFBT, upregulated): 1.617 | ES [38]: −0.499 | NES [38]: −2.099 | ES (NRF2_01, TFBT, upregulated): 0.356 | NES (NRF2_01, TFBT, upregulated): 1.597
